Reference: ChEMBL document CHEMBL5260850, “The exploration of aza-quinolines as hematopoietic prostaglandin D synthase (H-PGDS) inhibitors with low brain exposure” (Bioorg Med Chem, 2020)
Activity calls are given as the source filed them. No cut-off for these calls is given here.

Tests used:
[1] = Terminal half life in mouse at 1 mg/kg, iv; type: ADME, organism-based; details: in vivo, read-out: beta t1/2 (converted)
[2] = Clearance in mouse at 1 mg/kg, iv; type: ADME, organism-based; details: in vivo
[3] = Volume of distribution at steady state in mouse at 1 mg/kg, iv; type: ADME, organism-based; details: in vivo, read-out: Vdss
[4] = Oral bioavailability in mouse at 3 mg/kg; type: ADME, organism-based; details: in vivo
[5] = Ratio of drug level in brain to blood in mouse at 1 mg/kg, iv; type: ADME, organism-based; details: read-out: BBR
[6] = Terminal half life in rat at 0.4 mg/kg, iv; type: ADME, organism-based; details: in vivo, read-out: beta t1/2 (converted)
[7] = Volume of distribution at steady state in rat at 0.4 mg/kg, iv; type: ADME, organism-based; details: in vivo, read-out: Vdss
[8] = Oral bioavailability in rat at 2.4 mg/kg; type: ADME, organism-based; details: in vivo
[9] = Terminal half life in dog at 0.5 mg/kg, iv; type: ADME, organism-based, Canis lupus familiaris; details: in vivo, read-out: beta t1/2 (converted)
[10] = Clearance in dog at 0.5 mg/kg, iv; type: ADME, organism-based, Canis lupus familiaris; details: in vivo
[11] = Volume of distribution at steady state in dog at 0.5 mg/kg, iv; type: ADME, organism-based, Canis lupus familiaris; details: in vivo, read-out: Vdss
[12] = Oral bioavailability in dog at 1 mg/kg; type: ADME, organism-based, Canis lupus familiaris; details: in vivo
[13] = target: Sodium channel protein type 5 subunit alpha (Homo sapiens, UniProt Q14524); assay: Inhibition of Nav1.5 channel (unknown origin) upto 10000 nM; details: 10 µM
[14] = target: Amine oxidase [flavin-containing] A (Homo sapiens, UniProt P21397); assay: Inhibition of MAO-A (unknown origin) upto 10000 nM; details: 10 µM
Sequence of Amine oxidase [flavin-containing] A (P21397 whole entry): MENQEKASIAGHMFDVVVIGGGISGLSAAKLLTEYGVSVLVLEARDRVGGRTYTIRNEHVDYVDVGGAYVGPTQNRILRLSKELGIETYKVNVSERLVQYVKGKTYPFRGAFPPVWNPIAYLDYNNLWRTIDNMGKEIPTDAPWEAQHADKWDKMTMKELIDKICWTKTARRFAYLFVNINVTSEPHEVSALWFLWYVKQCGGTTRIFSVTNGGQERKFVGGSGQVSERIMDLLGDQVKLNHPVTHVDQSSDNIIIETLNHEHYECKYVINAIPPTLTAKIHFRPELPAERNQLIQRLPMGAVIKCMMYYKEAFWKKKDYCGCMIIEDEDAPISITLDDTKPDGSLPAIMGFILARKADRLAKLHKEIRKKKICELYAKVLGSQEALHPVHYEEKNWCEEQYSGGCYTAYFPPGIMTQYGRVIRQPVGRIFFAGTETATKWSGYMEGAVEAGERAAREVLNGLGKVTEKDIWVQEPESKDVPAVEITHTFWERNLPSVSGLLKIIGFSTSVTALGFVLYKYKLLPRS

[15] = target: Aryl hydrocarbon receptor (Homo sapiens, UniProt P35869); assay: Inhibition of AhR (unknown origin) upto 10000 nM; details: 10 µM
[16] = target: Voltage-gated inwardly rectifying potassium channel KCNH2 (Homo sapiens, UniProt Q12809); assay: Inhibition of hERG
Mus musculus [17] = assay: Anti-inflammatory activity against C57BL6/N mouse assessed as reduction in LPS-induced PGD2 level in skeletal muscle administered orally with compound and 1 hr later treated with LPS and measured after 30 mins by LC-MS/MS analysis; type: functional; details: route po, time 1.5 hrs
Mus musculus [18] = assay: Anti-inflammatory activity against C57BL/6N mouse assessed as inhibition of muscle function loss by measuring functional recovery of injured limb muscles administered orally for 10 mins prior to unilateral eccentric contraction and QD for 16 days thereafter; details: 384 h, route po, time 16 day
[19] = AUC (0 to last) in eccentric contraction-induced muscle injury C57BL/6N mouse model administered orally for 10 mins prior to unilateral eccentric contraction and QD for 16 days thereafter; type: ADME; set-up: time 16 day, route po; details: in vivo, po
[20] = Free AUC (0 to last) in eccentric contraction-induced muscle injury C57BL/6N mouse model administered orally for 10 mins prior to unilateral eccentric contraction and QD for 16 days thereafter; type: ADME; details: in vivo, po, 384 h, time 16 day
[21] = Free Cmax in eccentric contraction-induced muscle injury C57BL/6N mouse model administered orally 10 mins prior to unilateral eccentric contraction and QD for 16 days thereafter; type: ADME; details: in vivo, po, 384 h, time 16 day
[22] = AUC (0 to last) in mdx mouse administered orally 10 mins prior to unilateral eccentric contraction and QD for 43 days thereafter; type: ADME; set-up: time 43 day, route po; details: in vivo, po
[23] = Toxicity in C57BL/6N mouse assessed as seizures administered orally for 10 mins prior to unilateral eccentric contraction and QD for 43 days thereafter; details: in vivo, po, 1032 h, time 43 day
[24] = Ratio of drug level in muscle to plasma in C57BL/6N mouse administered orally for 10 mins prior to unilateral eccentric contraction and QD for 43 days thereafter; type: toxicity, cell-free, Muscle tissue/plasma; details: route po, time 43 day
[25] = Toxicity in Wistar Han rat assessed as tolerance at 30 mg/kg/day, po administered QD for 7 days; type: organism-based; details: in vivo, 168 h, time 7 day
[26] = Toxicity in Wistar Han rat assessed as proximal tubular vacuolation and hyaline cast formation in kidney at 100 mg/kg/day, po administered QD for 7 days by microscopic analysis; type: organism-based; details: in vivo, 168 h, time 7 day
[27] = AUC in Wistar Han rat at 10 mg/kg/day, po QD for 7 days; type: ADME, organism-based; set-up: dose 10 mg/kg/day, time 7 day, route po; details: in vivo
[28] = AUC in Wistar Han rat at 30 mg/kg/day, po QD for 7 days; type: ADME, organism-based; set-up: dose 30 mg/kg/day, time 7 day, route po; details: in vivo
[29] = Cmax in Wistar Han rat at 30 mg/kg/day, po QD for 7 days; type: ADME, organism-based; set-up: time 7 day, dose 30 mg/kg/day, route po; details: in vivo
[30] = Toxicity in dog assessed as deterioration in clinical condition at 75 mg/kg/day, po QD for 4 days; type: organism-based, Canis lupus familiaris; details: in vivo, 96 h, time 4 day
[31] = Toxicity in dog assessed as decrease in body temperature at 75 mg/kg/day, po QD for 4 days; type: organism-based, Canis lupus familiaris; details: in vivo, 96 h, time 4 day
[32] = Toxicity in dog assessed as discoloration in small intestine and oesophagus at 75 mg/kg/day, po QD for 4 days by macroscopic analysis; type: organism-based, Canis lupus familiaris; details: in vivo, 96 h, time 4 day
[33] = Toxicity in dog assessed as degeneration of zona glomerulosa in adrenal gland at 75 mg/kg/day, po QD for 4 days by microscopic analysis; type: organism-based, Canis lupus familiaris; details: in vivo, 96 h, time 4 day
[34] = Toxicity in dog assessed as hemorrhage of zona fasciculata in adrenal gland at 75 mg/kg/day, po QD for 4 days by microscopic analysis; type: organism-based, Canis lupus familiaris; details: in vivo, 96 h, time 4 day
[35] = Cmax in dog at 10 mg/kg/day, po QD for 4 days; type: ADME, organism-based, Canis lupus familiaris; set-up: dose 10 mg/kg/day, time 4 day, route po; details: in vivo
[36] = target: 5-hydroxytryptamine receptor 2A (Homo sapiens) (UniProt P28223); details: dose <= 10000.0 nM
Description: Inhibition of 5-HT2A receptor (unknown origin) upto 10000 nM

[37] = target: Alpha-2C adrenergic receptor (Homo sapiens) (UniProt P18825); details: dose <= 10000.0 nM
Description: Inhibition of alpha2C adrenergic receptor (unknown origin) upto 10000 nM

[38] = target: Cannabinoid receptor 1 (Homo sapiens) (UniProt P21554); details: dose <= 10000.0 nM
Description: Inhibition of CB1 receptor (unknown origin) upto 10000 nM

[39] = target: Histamine H1 receptor (Homo sapiens) (UniProt P35367); details: dose <= 10000.0 nM
Sequence of Histamine H1 receptor (Homo sapiens) (P35367 whole entry): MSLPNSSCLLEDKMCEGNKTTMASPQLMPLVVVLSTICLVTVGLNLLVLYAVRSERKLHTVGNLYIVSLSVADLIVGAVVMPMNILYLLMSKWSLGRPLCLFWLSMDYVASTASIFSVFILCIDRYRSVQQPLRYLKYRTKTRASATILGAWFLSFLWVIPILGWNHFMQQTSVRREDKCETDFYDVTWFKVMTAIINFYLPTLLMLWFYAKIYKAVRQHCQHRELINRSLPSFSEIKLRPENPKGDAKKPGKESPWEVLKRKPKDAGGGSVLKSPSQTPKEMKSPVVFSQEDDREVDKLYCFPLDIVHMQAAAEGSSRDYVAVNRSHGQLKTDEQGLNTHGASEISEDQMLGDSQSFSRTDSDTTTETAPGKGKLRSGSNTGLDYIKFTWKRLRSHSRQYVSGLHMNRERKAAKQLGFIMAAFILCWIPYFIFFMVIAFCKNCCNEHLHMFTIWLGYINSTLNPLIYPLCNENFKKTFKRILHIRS
Description: Inhibition of histamine H1 receptor (unknown origin) upto 10000 nM

[40] = target: Substance-P receptor (Homo sapiens) (UniProt P25103); details: dose <= 10000.0 nM
Sequence of Substance-P receptor (Homo sapiens) (P25103 whole entry): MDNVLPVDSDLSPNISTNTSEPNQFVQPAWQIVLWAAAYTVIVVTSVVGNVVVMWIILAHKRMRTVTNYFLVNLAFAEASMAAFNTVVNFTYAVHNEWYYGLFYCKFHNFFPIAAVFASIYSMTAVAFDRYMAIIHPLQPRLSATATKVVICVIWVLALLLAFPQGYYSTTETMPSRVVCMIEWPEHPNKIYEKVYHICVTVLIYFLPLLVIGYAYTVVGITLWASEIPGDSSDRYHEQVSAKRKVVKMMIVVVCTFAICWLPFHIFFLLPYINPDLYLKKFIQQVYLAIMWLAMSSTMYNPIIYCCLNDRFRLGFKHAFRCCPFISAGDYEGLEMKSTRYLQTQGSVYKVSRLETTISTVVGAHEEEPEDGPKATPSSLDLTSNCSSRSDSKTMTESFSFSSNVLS
Description: Inhibition of tachykinin NK1 receptor (unknown origin) upto 10000 nM

[41] = target: Vasopressin V1a receptor (Homo sapiens) (UniProt P37288); details: dose <= 10000.0 nM
Sequence of Vasopressin V1a receptor (Homo sapiens) (P37288 whole entry, looked up): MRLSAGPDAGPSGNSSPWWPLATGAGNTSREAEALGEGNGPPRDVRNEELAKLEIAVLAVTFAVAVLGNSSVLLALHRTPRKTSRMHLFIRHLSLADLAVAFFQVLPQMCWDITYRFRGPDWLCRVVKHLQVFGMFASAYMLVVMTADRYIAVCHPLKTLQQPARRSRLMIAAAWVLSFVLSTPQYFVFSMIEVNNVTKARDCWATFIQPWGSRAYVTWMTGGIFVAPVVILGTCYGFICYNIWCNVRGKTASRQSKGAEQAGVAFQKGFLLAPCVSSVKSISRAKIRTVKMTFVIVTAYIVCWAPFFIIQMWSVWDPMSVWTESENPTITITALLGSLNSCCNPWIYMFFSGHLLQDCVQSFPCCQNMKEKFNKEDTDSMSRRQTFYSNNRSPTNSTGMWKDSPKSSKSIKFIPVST
Description: Inhibition of V1A receptor (unknown origin) upto 10000 nM

[42] = target: 5-hydroxytryptamine receptor 3A (Homo sapiens) (UniProt P46098); details: dose <= 10000.0 nM
Sequence of 5-hydroxytryptamine receptor 3A (Homo sapiens) (P46098 whole entry): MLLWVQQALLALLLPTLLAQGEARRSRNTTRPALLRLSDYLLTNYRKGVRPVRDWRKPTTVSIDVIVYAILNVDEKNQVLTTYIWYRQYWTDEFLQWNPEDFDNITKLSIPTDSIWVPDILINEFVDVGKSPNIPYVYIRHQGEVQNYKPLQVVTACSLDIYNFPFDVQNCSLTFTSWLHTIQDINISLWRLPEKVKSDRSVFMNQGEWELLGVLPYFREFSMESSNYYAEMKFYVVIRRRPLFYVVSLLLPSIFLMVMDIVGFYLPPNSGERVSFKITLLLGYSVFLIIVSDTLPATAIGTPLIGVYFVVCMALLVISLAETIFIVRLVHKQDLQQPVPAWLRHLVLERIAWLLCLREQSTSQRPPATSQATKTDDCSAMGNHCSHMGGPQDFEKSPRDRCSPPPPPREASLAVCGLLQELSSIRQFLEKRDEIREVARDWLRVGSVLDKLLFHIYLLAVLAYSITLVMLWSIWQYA
Description: Inhibition of 5-HT3 receptor (unknown origin) upto 10000 nM

[43] = target: Potassium voltage-gated channel subfamily A member 5 (Homo sapiens) (UniProt P22460); details: dose <= 10000.0 nM
Sequence of Potassium voltage-gated channel subfamily A member 5 (Homo sapiens) (P22460 whole entry): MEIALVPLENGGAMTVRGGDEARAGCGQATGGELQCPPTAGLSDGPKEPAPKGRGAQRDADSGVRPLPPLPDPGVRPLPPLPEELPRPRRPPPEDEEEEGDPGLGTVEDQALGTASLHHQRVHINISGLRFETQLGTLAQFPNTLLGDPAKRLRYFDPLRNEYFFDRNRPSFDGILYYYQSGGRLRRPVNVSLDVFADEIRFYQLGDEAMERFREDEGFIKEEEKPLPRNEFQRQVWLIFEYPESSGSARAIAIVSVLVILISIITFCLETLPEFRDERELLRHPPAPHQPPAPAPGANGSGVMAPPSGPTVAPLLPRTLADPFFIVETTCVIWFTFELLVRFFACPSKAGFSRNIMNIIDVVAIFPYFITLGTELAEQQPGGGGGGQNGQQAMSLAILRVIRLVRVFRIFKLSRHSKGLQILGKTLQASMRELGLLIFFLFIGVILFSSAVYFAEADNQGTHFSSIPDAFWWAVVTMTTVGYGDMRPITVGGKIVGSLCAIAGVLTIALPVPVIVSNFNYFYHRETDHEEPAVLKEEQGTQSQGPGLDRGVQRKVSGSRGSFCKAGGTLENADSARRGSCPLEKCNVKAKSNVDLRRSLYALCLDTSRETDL
Description: Inhibition of Kv1.5 channel (unknown origin) upto 10000 nM

[44] = target: Acetylcholinesterase (Homo sapiens) (UniProt P22303); details: dose <= 10000.0 nM
Sequence of Acetylcholinesterase (Homo sapiens) (P22303 whole entry): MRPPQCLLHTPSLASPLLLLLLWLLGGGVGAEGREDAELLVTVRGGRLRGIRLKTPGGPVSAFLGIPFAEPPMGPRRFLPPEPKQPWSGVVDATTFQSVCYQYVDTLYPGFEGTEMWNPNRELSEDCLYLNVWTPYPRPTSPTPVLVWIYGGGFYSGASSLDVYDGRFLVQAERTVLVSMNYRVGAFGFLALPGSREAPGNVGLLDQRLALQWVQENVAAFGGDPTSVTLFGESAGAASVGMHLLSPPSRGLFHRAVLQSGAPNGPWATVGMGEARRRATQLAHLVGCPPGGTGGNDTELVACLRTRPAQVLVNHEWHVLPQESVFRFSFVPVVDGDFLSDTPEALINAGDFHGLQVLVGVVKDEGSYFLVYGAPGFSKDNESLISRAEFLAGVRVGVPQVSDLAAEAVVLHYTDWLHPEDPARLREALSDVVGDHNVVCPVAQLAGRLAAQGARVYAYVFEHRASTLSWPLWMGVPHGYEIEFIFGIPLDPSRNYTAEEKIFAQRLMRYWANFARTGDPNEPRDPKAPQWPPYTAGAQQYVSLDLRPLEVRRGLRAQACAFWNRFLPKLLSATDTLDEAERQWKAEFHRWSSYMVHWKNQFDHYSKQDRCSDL
Description: Inhibition of AChE (unknown origin) upto 10000 nM

[45] = target: 3',5'-cyclic-AMP phosphodiesterase 4B (Homo sapiens) (UniProt Q07343); details: dose <= 10000.0 nM
Description: Inhibition of PDE4B (unknown origin) upto 10000 nM

[46] = target: Aurora kinase B (Homo sapiens) (UniProt Q96GD4); details: dose <= 10000.0 nM
Sequence of Aurora kinase B (Homo sapiens) (Q96GD4 whole entry, canonical isoform): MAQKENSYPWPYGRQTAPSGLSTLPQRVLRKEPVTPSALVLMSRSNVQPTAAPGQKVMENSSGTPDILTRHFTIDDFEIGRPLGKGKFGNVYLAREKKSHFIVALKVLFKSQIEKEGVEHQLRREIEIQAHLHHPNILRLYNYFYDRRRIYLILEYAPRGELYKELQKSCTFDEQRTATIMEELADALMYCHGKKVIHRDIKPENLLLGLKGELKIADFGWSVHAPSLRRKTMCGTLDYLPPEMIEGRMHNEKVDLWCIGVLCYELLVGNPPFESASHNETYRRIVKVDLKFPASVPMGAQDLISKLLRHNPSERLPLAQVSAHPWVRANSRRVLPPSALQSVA
Description: Inhibition of Aurora B kinase (unknown origin) upto 10000 nM

[47] = target: Phosphatidylinositol 4,5-bisphosphate 3-kinase catalytic subunit gamma isoform (Homo sapiens) (UniProt P48736); details: dose <= 10000.0 nM
Sequence of Phosphatidylinositol 4,5-bisphosphate 3-kinase catalytic subunit gamma isoform (Homo sapiens) (P48736 whole entry, looked up, canonical isoform): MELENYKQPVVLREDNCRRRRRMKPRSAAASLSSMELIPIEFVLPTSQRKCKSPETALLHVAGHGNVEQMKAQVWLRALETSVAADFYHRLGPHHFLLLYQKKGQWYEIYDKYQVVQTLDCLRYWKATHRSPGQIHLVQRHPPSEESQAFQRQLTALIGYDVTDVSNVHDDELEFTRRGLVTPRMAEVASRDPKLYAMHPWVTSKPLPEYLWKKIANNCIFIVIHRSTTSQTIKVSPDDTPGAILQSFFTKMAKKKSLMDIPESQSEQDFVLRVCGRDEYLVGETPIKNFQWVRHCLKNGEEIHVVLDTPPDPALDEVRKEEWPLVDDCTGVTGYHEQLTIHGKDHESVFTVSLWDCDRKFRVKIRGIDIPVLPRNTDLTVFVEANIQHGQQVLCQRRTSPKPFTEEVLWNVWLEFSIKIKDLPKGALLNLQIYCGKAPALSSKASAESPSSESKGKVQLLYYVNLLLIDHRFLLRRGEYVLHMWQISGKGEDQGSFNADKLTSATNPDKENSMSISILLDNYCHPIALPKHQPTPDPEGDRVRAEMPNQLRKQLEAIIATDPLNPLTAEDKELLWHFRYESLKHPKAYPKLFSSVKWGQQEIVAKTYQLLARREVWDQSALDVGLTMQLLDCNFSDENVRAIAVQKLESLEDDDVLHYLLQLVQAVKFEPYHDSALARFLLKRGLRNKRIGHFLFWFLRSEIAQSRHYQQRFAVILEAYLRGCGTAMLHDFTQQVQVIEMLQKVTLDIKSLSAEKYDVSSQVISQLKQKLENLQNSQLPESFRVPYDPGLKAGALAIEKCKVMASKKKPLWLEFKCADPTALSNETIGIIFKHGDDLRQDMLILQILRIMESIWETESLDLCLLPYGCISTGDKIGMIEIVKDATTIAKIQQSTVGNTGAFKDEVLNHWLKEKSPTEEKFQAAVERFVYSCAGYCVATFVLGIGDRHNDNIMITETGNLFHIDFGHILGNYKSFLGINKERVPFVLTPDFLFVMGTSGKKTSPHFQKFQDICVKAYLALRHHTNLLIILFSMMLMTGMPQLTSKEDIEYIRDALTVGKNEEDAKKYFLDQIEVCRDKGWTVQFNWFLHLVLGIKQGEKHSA
Description: Inhibition of PI3K-gamma (unknown origin) upto 10000 nM

[48] = target: Sodium-dependent noradrenaline transporter (Homo sapiens) (UniProt P23975); details: dose <= 10000.0 nM
Description: Inhibition of NET (unknown origin) upto 10000 nM

## CC(C)(O)[C@H]1CC[C@H](NC(=O)c2cnc3nc(C4CC4)ccc3c2)CC1
[1]
  half-life: 2.9 h
[2]
  clearance: 9 mL/min/kg
[3]
  Vd: 1.6 L/kg
[4]
  bioavailability: 71%
[5]
  Kp: 0.06
[6]
  half-life: 5.1 h
[7]
  Vd: 1.6 L/kg
[8]
  bioavailability: 100%
[9]
  half-life: 6.2 h
[10]
  clearance: 1.9 mL/min/kg
[11]
  Vd: 1 L/kg
[12]
  bioavailability: 92%
[13]
  inhibition (INH): Not Active
[14]
  inhibition (INH): Not Active
[15]
  inhibition (INH): Not Active
[16]
  IC50: > 80 µM
Mus musculus [17]
  ED50: 0.0138 mg/kg
Mus musculus [18]
  ED50: 3 mg/kg
[19]
  AUC(0-t) at 384 h: 5300 ng·h/mL
[20]
  fAUClast: 1200 ng·h/mL
[21]
  fCmax: 370 ng/mL
[22]
  AUC(0-t) at 1032 h: 1100 ng·h/mL
[23]
  Activity: Non-Toxic
[24]
  Kp at 1032 h: 0.56
[25]
  Activity: Non-Toxic
[26]
  Activity: Toxic
[27]
  AUC at 168 h: 120000 ng·h/mL
[28]
  AUC at 168 h: 410000 ng·h/mL
[29]
  Cmax: 24000 ng/mL
[30]
  Activity: Toxic
[31]
  Activity: Toxic
[32]
  Activity: Toxic
[33]
  Activity: Toxic
[34]
  Activity: Toxic
[35]
  Cmax: 13000 ng/mL
[36]
  inhibition: inactive
[37]
  inhibition: inactive
[38]
  inhibition: inactive
[39]
  inhibition: inactive
[40]
  inhibition: inactive
[41]
  inhibition: inactive
[42]
  inhibition: inactive
[43]
  inhibition: inactive
[44]
  inhibition: inactive
[45]
  inhibition: inactive
[46]
  inhibition: inactive
[47]
  inhibition: inactive
[48]
  inhibition: inactive
